{"source": "patent US11814366B2", "about": "“Antiviral compounds and use thereof” (UNIVERSITA DEGLI STUDI DI SIENA, priority 2018, dated 2023)", "tested_on": "HSV-2", "assay": "Binding of virus to cell (ELISA, immunofluorescence)", "type": "cell-based, Herpes 2 virus (HSV-2)", "conditions": "10 μM, HSV-2, Vero cells", "description": "Vero Cells were plated in 96 well plates. The following day 10 μM of compound 15b in DMSO and HSV-2 (MOI 10 pfu/cell) were incubated for 1 h at 37° C. and subsequently added on cells for 2 hours at 4° C. Cells were then fixed with 4% paraformaldehyde, air dried, and blocked with 5% bovine serum albumin (BSA) in phosphate-buffered saline (PBS)-Tween. Binding of virus to vero cells was detected using the polyclonal HSV-2 antibody (Dako, Denmark) (diluted 1:250) incubated for 1 h at room temperature, washed three times with PBS-Tween, and incubated for 1 h at 37° C. with anti-rabbit conjugated to horseradish peroxidase (1:500). At the end of incubation, plates were washed three times with PBS-Tween, ABTS[2,2-azinobis(3-ethyl benz thiazoline sulfonic acid)] (A1888 SIGMA ALDRICH) substrate was added for 30 minutes (Thermo Scientific, Rockford, IL), and the absorbance at 405 nm was read.\nVero cells were pre-plated on coverslips and the following day the binding or entry protocol described above was applied. […] Rhodamine conjugated anti-rabbit IgG (Santa Cruz) was then added on cells for 1 h at 37° C. following 3 washes coverslips were mounted on microscope glasses and observed with Zeiss LSM510 fluorescence microscope (Zeiss, Oberkochen, Germany) and images were acquired (FIG. 3A, 3B).", "note": "Entries after “also recorded” stand apart in the source; their conditions may differ."}
{"smiles": "O=C1NC(=S)N(CCc2ccccc2)C(=O)/C1=C\\c1ccc(-c2ccc(C(=O)O)c(O)c2)[nH]1", "note": "[Compound 15b, (Z)-4-(5-((4,6-dioxo-1-phenethyl-2-thioxotetrahydropyrimidin-5(2H)-ylidene)methyl)-1H-pyrrol-2-yl)-2-hydroxybenzoic Acid]", "values": [{"measurement": "viral binding / percentage of bound virus", "result": "not impairing viral binding; also recorded: the same"}]}
